Measurements as given in US20090257999A1, “Method of preventing contrast-induced nephropathy” (Inotek Pharmaceuticals Corporation, priority 2007, published 2009).

Tests used:
Type in all cases: in vivo, rat
[1] = system: Neutrophil gelatinase-associated lipocalin (NGAL); test: Plasma NGAL by ELISA, Example 1; settings: diabetic rats + i.v. Iomeprol; Metalloporphyrin A 1 mg/kg or NAC 10 mg/kg; versus drug placebo; readings 0-96 hours
Protocol: (§1) Experimental model for assessing the effects of Metalloporphyrin A on CIN: Diabetic (n=8) for group #'s 1-9 or wild-type rats (n=10) for group #'s 10 and 11 were treated with drug 60 min prior to contrast agent administration. At the “0” time point, Iomeprol was administered with ensuing drug intervention dosing every 12 hours for Metalloporphyrin A from 24-84 hours or every 24 hours for NAC from 24-72 hours. At the 96 hour time point, kidneys were harvested for histopathology, MPO and MDA measurements. From 0-96 hours, plasma samples from all animals per group were screened for urea, creatinine, fractional excretion of Na^+ and NGAL.
Neutrophil gelatinase-associated lipocalin (NGAL) has recently been proposed as a real-time indicator of active kidney damage by Mori, K., Nakao, K., Kidney International (2007) 71, 967-970. The plasma from 5 different diabetic animals per experimental group were taken for measurement of NGAL by ELISA as outlined below:
1) For diabetic rats without contrast agent, non-diluted plasma was used. For diabetic rats with contrast agent, plasma samples were diluted 1:400 with saline prior to use.
100 microliter diluted/non-diluted plasma samples or recombinant NGAL protein (25-1000 ng/ml) were added to pre-coated ELISA plates containing a monoclonal antibody raised against NGAL. […]
5) Plates were read at an absorbance of 450 nm.

diabetic rats [2] = test: CIN animal model, Example 1: plasma urea and creatinine (glomerular dysfunction)
Protocol: (§2) Male Wistar rats (150-200 g; Harlan Nossanr) were housed in a controlled environment and provided with standard rodent chow and water.
(§3) After 12 hours of fasting, the animals received a single 60 mg/kg intravenous (i.v.) injection of streptozotocin (Sigma, St. Louis, Mo.) in 10 mM sodium citrate buffer, pH 4.5 (see figure showing CIN model). Control non-diabetic animals were fasted and received citrate buffer alone. After 24 hours, animals with blood glucose levels greater than 250 mg/dl were considered diabetic. All experiments were performed 10 days following the induction of diabetes. The diabetic state was evaluated daily by determination of the blood glucose levels. Upon the induction of the diabetic state the animals were presenting with a major risk factor pre-disposing the animals to CIN after the administration of contrast media.
Ten days following the induction of diabetes the rats were anesthetized with 90 mg/kg ketamine i.m. and 10 mg/kg xylazine i.m. and were treated with the contrast agent iomeprol (10 mL/kg injected via the lateral tail vein) or with 0.9% normal saline. The contrast agent used was the low osmolar non-ionic monomer iomeprol (Iomeron, 400 mgI mL-1; Bracco SpA, Milan, Italy) with an osmolality of 726±34 mosmol/kg H2O. Upon completion of surgical procedures, the animals were randomly allocated to eleven different experimental groups as tabulated below:
as §1
(§4) At the indicated time point blood samples were collected via the lateral tail vein into S1/3 tubes containing serum gel. The samples were centrifuged (6000 r.p.m. for 3 min) to separate plasma. All plasma samples were analyzed for biochemical parameters within 24 hours of collection. Plasma concentrations of urea and creatinine were measured as indicators of impaired glomerular function. Urine samples were collected at 96 hour after contrast agent administration and the volume of urine produced was recorded. Urine concentrations of Na^+ were measured and were used in conjunction with plasma Na^+ concentrations to calculate fractional excretion of Na^+ (FENa) using standard formulae, which was used as an indicator of tubular function.

diabetic rats [3] = test: CIN animal model, Example 1: fractional excretion of Na+ (FENa, tubular function); settings: at 96 hours
Protocol: as §2
as §3, with “Upon the induction of the diabetic state the animals were presenting with a major risk factor pre-disposing the animals to CIN after the administration of contrast media.” left out
as §4, with “serum gel. […] All plasma” for “serum gel. The samples were centrifuged (6000 r.p.m. for 3 min) to separate plasma. All plasma”, “tubular function. […]” for “tubular function.”

[4] = system: ICAM-1, Nitrotyrosine and PAR expression; test: Immunohistochemical localization of ICAM-1, nitrotyrosine and poly(ADP-ribose) in kidney, Example 1; settings: diabetic rats + Iomeprol; metalloporphyrin A 1 mg/kg 60 min prior to Iomeprol, or NAC 10 mg/kg
Protocol: as §1
Rat kidneys fixed in 10% (wt/vol) neutral buffered paraformaldehyde and […] sections were prepared from paraffin-embedded tissues. After deparaffination, endogenous peroxidase was quenched using 0.3% (vol/vol) H2O2 in 60% methanol for 30 minutes. The sections were permeabilized using 0.1% (wt/vol) Triton X-100 in phosphate-buffered saline (PBS; 0.01 mol/L, pH 7.4) for 20 minutes. Nonspecific adsorption was minimized by incubating sections in 2% (vol/vol) normal goat serum in PBS for 20 minutes. Endogenous avidin- and biotin-binding sites were blocked by sequential incubation for 15 minutes with avidin (DBA, Milan, Italy) and biotin (DBA, Milan, Italy), respectively. The sections were then incubated overnight with primary antinitrotyrosine antibody (1:1000), anti-PAR antibody (1:500) and anti-ICAM-1 antibody (1:500). Separate sections were also incubated with control solutions consisting of PBS alone or a 1:500 dilution of nonspecific purified rabbit IgG (DBA). Specific labeling was detected using a biotin-conjugated goat antirabbit IgG (DBA) and avidin-biotin peroxidase (DBA). Samples were then viewed under a light microscope.

diabetic rats [5] = test: CIN model, Example 2: NAC and Metalloporphyrin A in diabetic rats; settings: diabetic (STZ) rats + Iomeprol, NAC 3-100 mg/kg i.v., or NAC 10-100 mg/kg + Metalloporphyrin A 1 mg/kg i.v., at −30 min
Protocol: Male Wistar rats (150-200 g; Harlan Nossanr) were housed in a controlled environment and provided with standard rodent chow and water. Diabetes was induced after 2 hours of fasting. The animals received a single 60 mg/kg intravenous (i.v.) injection of streptozotocin (Sigma, St. Louis, Mo.) in 10 mM sodium citrate buffer, pH 4.5 (see figure). Control non-diabetic animals were fasted and received citrate buffer alone. After 24 hours, animals with blood glucose levels greater than 250 mg/dl were considered diabetic. The diabetic state was confirmed by evaluating the blood glucose levels. Ten days following the induction of diabetes rats were anesthetized with 90 mg/kg ketamine i.m. and 10 mg/kg xylazine i.m. and were treated with the contrast agent iomeprol (10 mL/kg injected via the lateral tail vein) or with 0.9% normal saline. The contrast agent used was the low osmolar non-ionic monomer iomeprol (Iomeron, 400 mgI mL-1; Bracco SpA, Milan, Italy) with an osmolality of 726±34 mosmol/kg H2O.
Blood samples were collected via the lateral tail vein into S1/3 tubes containing serum gel at 0 and 24 hours. The samples were centrifuged (6000 r.p.m. for 3 min) to separate plasma. All plasma samples were analyzed for biochemical parameters within 24 hours after collection. Plasma and urine concentrations of creatinine were measured as indicators of impaired glomerular function. Creatinine clearance was calculated using the following formula (=UV/P), where U refers to Creatinine concentration in urine, V to urine volume/min and P to serum creatinine.
Protein concentration in urine was determined by Bio-Rad DC Protein Assay (BioRad, Richmond Calif.). The Bio-Rad DC protein assay is a colorimetric assay for protein concentration.

[6] = diabetic rats + i.v. Iomeprol 10 ml/kg, Metalloporphyrin A 1000 μg/kg or NAC 10 mg/kg i.p., at 48, 72 and 96 hours
[7] = diabetic rats + i.v. saline (no contrast agent), NAC 10 mg/kg i.p., at 72 and 96 hours

## CC(=O)N[C@@H](CS)C(=O)O [NAC, N-acetylcysteine]
[1]
  plasma NGAL levels: significantly lower
Diabetic rats [2]; [6]
  plasma creatinine concentration: reductions
  plasma urea concentration: reductions
Diabetic rats [2]; [7]
  plasma creatinine concentration: significantly reduced the increase
  plasma urea concentration: significantly reduced the increase
Diabetic rats [3]; diabetic rats + i.v. Iomeprol, Metalloporphyrin A 30-1000 μg/kg or NAC 10 mg/kg i.p.
  fractional excretion of sodium (FENa): significant reductions
Diabetic rats [3]; diabetic rats + i.v. saline (no contrast agent), Metalloporphyrin A 1000 μg/kg or NAC 10 mg/kg i.p.
  fractional excretion of sodium (FENa): significantly reduced the increase
[4]
  ICAM-1 staining/expression in kidney medulla: afforded protection
  Nitrotyrosine staining/expression in kidney medulla: afforded protection
  PAR staining/expression in kidney medulla: afforded protection
Diabetic rats [5]; 24 h
  plasma creatinine: significant reductions
Diabetic rats [5]; 24 hours
  total protein concentration in the urine: significant reductions
  urine αGST concentration: significant reduction
